Values of other authors in patent US11577235B1, “Layered catalyst reactor systems and processes for hydrotreatment of hydrocarbon feedstocks” (Chevron U.S.A. Inc., priority 2021, dated 2023).

System: rats
Settings: single oral dose to rats

Which LD50 does the source give for O=CC(=O)O [glyoxylic] here?
Its LD50 is 3000 mg/kg.

With thio-diglycolic acid as the compound, how does the LD50 read?
The LD50 was 500 mg/kg.
